# Test results as given in US20260077170A1, “MICRONEEDLE DRUG DELIVERY APPARATUS AND PREPARATION METHOD THEREOF” (TSINGHUA UNIVERSITY, priority 2023, published 2026).
# Assays:
# [1] = system: blood glucose; assay: Hypoglycemic effect of insulin-loaded microneedle drug delivery apparatus in minipigs; assay type: in vivo, experimental minipigs; settings: delivered into duodenum by gastroscope, real-time blood glucose over 4 hours
# Excerpt: Considering the similarities between pigs and humans in the structure of the digestive system and physiological functions, experimental minipigs were used as the animal model for functional verification of the apparatus in this example. To prevent the pigs' chewing behavior from damaging the microneedle drug delivery apparatus and to take the individual variations in gastric emptying time into account, in this example, after anesthetizing the pigs, the microneedle drug delivery apparatus prepared in Example 2 was delivered into the pigs' duodenum using a gastroscope, and this moment was defined as time zero, the beginning of monitoring of the drug concentration in serum and the drug delivery effect. Central venous blood samples were collected every 20 minutes for a continuous time period of 4 hours. Real-time blood glucose was measured using a portable blood glucose meter, and the results were illustrated in FIG. 13 and FIG. 14.
# [2] = Bioavailability of insulin from serum pharmacokinetic curve (human insulin ELISA); assay type: in vivo, experimental minipigs; settings: minipigs, (AUC/dose) relative to subcutaneous injection group, serum insulin over 4 hours
# Excerpt: Considering the similarities between pigs and humans in the structure of the digestive system and physiological functions, experimental minipigs were used as the animal model for functional verification of the apparatus in this example. To prevent the pigs' chewing behavior from damaging the microneedle drug delivery apparatus and to take the individual variations in gastric emptying time into account, in this example, after anesthetizing the pigs, the microneedle drug delivery apparatus prepared in Example 2 was delivered into the pigs' duodenum using a gastroscope, and this moment was defined as time zero, the beginning of monitoring of the drug concentration in serum and the drug delivery effect. Central venous blood samples were collected every 20 minutes for a continuous time period of 4 hours. Excess blood was placed in a coagulation tube, left to stand for approximately 40 minutes, and then centrifuged to separate the serum. […] Calculating the area under this curve (AUC) can be used to compare the bioavailability of different drug delivery methods. […] The bioavailability was calculated as the ratio of the area under the pharmacokinetic curve (AUC)/administered dose of the test group to the corresponding value of the subcutaneous injection group, for evaluating the efficiency of a drug delivery method. […]
substance,measurement,setting,value
human recombinant insulin,hypoglycemic effect,[1],poor hypoglycemic effect
same,bioavailability,[2],0.6%
